Laboratory results as given in ChEMBL document CHEMBL4819026, “4-Oxoquinolines and monoamine oxidase: When tautomerism matters” (Eur J Med Chem, 2021).

Key:
[1] = target: T1, Amine oxidase [flavin-containing] A (Homo sapiens, UniProt P21397); test: Inhibition of recombinant human MAOA using kynuramine as substrate measured for 30 mins by fluorescence spectrophotometric assay
T1 sequence (P21397 whole entry): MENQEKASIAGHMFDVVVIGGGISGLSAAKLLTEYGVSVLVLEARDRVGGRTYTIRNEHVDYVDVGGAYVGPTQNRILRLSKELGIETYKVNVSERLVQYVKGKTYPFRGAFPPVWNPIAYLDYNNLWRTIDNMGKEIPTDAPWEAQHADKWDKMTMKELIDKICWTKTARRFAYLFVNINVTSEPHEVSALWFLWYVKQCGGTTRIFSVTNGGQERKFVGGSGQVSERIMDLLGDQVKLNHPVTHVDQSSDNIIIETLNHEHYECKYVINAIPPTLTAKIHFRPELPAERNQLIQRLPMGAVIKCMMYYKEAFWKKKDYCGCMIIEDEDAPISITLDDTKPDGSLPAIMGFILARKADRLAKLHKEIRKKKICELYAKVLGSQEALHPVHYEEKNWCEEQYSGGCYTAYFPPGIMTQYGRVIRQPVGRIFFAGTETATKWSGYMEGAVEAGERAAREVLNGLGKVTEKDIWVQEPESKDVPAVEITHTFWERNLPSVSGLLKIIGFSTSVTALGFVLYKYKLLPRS

[2] = target: T2, Amine oxidase [flavin-containing] B (Homo sapiens, UniProt P27338); test: Inhibition of recombinant human MAOB using kynuramine as substrate measured for 30 mins by fluorescence spectrophotometric assay
T2 sequence (P27338 whole entry): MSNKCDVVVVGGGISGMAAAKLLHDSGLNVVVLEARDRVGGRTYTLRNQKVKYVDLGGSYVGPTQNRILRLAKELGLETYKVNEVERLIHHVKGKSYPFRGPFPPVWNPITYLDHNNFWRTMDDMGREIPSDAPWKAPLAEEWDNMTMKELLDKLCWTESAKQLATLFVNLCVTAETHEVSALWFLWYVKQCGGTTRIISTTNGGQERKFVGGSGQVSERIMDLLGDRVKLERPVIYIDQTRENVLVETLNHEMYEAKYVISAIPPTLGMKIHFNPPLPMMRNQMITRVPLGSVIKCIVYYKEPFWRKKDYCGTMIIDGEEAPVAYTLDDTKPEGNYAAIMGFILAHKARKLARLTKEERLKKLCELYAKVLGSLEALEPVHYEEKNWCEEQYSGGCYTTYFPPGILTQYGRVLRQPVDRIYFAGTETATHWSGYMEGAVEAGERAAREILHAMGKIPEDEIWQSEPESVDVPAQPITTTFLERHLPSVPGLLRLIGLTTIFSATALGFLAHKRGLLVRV

Homo sapiens = species: Homo sapiens; test: Selectivity index, ratio of IC50 for inhibition of human MAOA to IC50 for inhibition of human MAOB
SH-SY5Y [3] = test: Cytotoxicity against differentiated human SH-SY5Y cells assessed as cell viability at 1 to 10 uM after 24 hrs by neutral red uptake assay relative to control; assay type: cell-based; details: dose 1-10 µM
SH-SY5Y [4] = test: Cytotoxicity against differentiated human SH-SY5Y cells assessed as cell viability at 1 to 10 uM after 24 hrs by SRB assay relative to control; assay type: cell-based; details: dose 1-10 µM
[5] = target: T1, Amine oxidase [flavin-containing] A; test: Inhibition of recombinant human MAOA using kynuramine as substrate at 10 uM measured for 30 mins by fluorescence spectrophotometric assay relative to control; details: 0.5 h
[6] = target: T2, Amine oxidase [flavin-containing] B; test: Inhibition of recombinant human MAOB using kynuramine as substrate at 10 uM measured for 30 mins by fluorescence spectrophotometric assay relative to control; details: 0.5 h
[7] = Cytotoxicity against differentiated human SH-SY5Y cells assessed as cell viability at 10 uM after 24 hrs by resazurin reduction assay relative to control; assay type: cell-based; details: read-out: Activity

Row | IC50 [1] [µM] | IC50 [2] [µM] | Ratio IC50 (Homo sapiens) | inhibition at 10 µM [5] [%] | inhibition at 10 µM [6] [%] | Compound | Activity (SH-SY5Y [3]) | Activity (SH-SY5Y [4]) | viability at 24 h, 10 µM [7] [%]
1 | 1740 | 11.1 | 157 | – | – | O=C(Nc1ccc(Cl)c(Cl)c1)c1c[nH]c2ccccc2c1=O | Non-Toxic | Non-Toxic | –
2 | – | – | – | 15 | 35 | Cc1ccc(NC(=O)c2c[nH]c3ccccc3c2=O)cc1C | – | – | –

Continued, compound first:

Row | Compound | IC50 [1] [µM] | IC50 [2] [µM] | Ratio IC50 (Homo sapiens) | inhibition at 10 µM [5] [%] | inhibition at 10 µM [6] [%] | Activity (SH-SY5Y [3]) | Activity (SH-SY5Y [4]) | viability at 24 h, 10 µM [7] [%]
3 | Cc1ccc(NC(=O)c2cn(C)c3ccccc3c2=O)cc1C | 1160 | 82.3 | 19.6 | – | – | Non-Toxic | Non-Toxic | –
4 | O=C(Nc1cccc(Cl)c1)c1c[nH]c2ccccc2c1=O | – | – | – | 8 | 40 | – | – | –
5 | Cn1cc(C(=O)Nc2cccc(Cl)c2)c(=O)c2ccccc21 | 7480 | 29 | 258 | – | – | Non-Toxic | Non-Toxic | > 90
6 | Cn1cc(C(=O)Nc2ccc(Cl)c(Cl)c2)c(=O)c2ccccc21 | – | 5.3 | > 1890 | 38 | – | Non-Toxic | Non-Toxic | > 90
